pEC50: −log10 of the molar value.
Biological target: T1, human β3 adrenergic receptor (Homo sapiens, UniProt P13945)
T1 construct: expressed in transfected cells; host or cells: Chinese hamster ovary (CHO) cells, stably transfected
Assay: Beta-3 agonist in vitro functional assay: cAMP production (LANCE TR-FRET) in CHO cells stably transfected with the cloned β3 receptor
Assay type: cell-based
Settings: Table 9; Beta-3 agonist in vitro functional assay; read-out: Human β3 agonist functional activity
Procedure, shortened: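 CHO cells stably expressing the cloned receptor, in HEPES-buffered HBSS with BSA and 0.6 mM IBMX, 6,000 cells/well, exposed to compound for 30 min at RT. cAMP read by LANCE TR-FRET against a cAMP standard curve. Isoproterenol defines maximal stimulation.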

T1 sequence (P13945 whole entry): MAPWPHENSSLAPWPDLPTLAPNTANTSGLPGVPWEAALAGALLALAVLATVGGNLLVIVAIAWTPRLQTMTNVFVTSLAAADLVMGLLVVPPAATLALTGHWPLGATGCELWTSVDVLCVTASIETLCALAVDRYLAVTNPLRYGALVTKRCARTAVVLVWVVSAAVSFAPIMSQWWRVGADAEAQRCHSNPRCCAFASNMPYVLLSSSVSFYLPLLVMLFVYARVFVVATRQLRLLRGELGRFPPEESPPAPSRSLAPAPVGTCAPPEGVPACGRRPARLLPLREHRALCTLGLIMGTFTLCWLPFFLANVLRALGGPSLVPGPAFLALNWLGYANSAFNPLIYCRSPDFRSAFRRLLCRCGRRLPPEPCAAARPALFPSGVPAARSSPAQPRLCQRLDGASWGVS

SMILES | pEC50
O=C(c1ccc(C[C@@H]2CC[C@H]([C@H](O)c3ccccc3)N2)cc1)N1CCN(c2ccncc2)CC1 [Example 356] | 6.00 to 7.00
O=C(c1ccc(C[C@@H]2CC[C@H]([C@H](O)c3ccccc3)N2)cc1)N1CCN(c2ncccc2F)CC1 [Example 357] | 6.00 to 7.00
O=C(c1ccc(C[C@@H]2CC[C@H]([C@H](O)c3ccccc3)N2)cc1)N1CCN(c2ncccc2Cl)CC1 [Example 358] | 7.00 to 8.00
O=C(c1ccc(C[C@@H]2CC[C@H]([C@H](O)c3ccccc3)N2)cc1)N1CCN(c2ccccc2O)CC1 [Example 359] | 7.00 to 8.00
O=C(c1ccc(C[C@@H]2CC[C@H]([C@H](O)c3ccccc3)N2)cc1)N1CCN(c2ncccc2O)CC1 [Example 360] | 7.00 to 8.00
COc1cccnc1N1CCN(C(=O)c2ccc(C[C@@H]3CC[C@H]([C@H](O)c4ccccc4)N3)cc2)CC1 [Example 361] | 7.00 to 8.00
CCOc1cccnc1N1CCN(C(=O)c2ccc(C[C@@H]3CC[C@H]([C@H](O)c4ccccc4)N3)cc2)CC1 [Example 362] | 7.00 to 8.00
CC(C)Oc1cccnc1N1CCN(C(=O)c2ccc(C[C@@H]3CC[C@H]([C@H](O)c4ccccc4)N3)cc2)CC1 [Example 363] | 7.00 to 8.00
Cc1cccnc1N1CCN(C(=O)c2ccc(C[C@@H]3CC[C@H]([C@H](O)c4ccccc4)N3)cc2)CC1 [Example 364] | 7.00 to 8.00
O=C(O)c1cccnc1N1CCN(C(=O)c2ccc(C[C@@H]3CC[C@H]([C@H](O)c4ccccc4)N3)cc2)CC1 [Example 365] | 6.00 to 7.00
COC(=O)c1cccnc1N1CCN(C(=O)c2ccc(C[C@@H]3CC[C@H]([C@H](O)c4ccccc4)N3)cc2)CC1 [Example 366] | 7.00 to 8.00
O=C(O)COc1cccnc1N1CCN(C(=O)c2ccc(C[C@@H]3CC[C@H]([C@H](O)c4ccccc4)N3)cc2)CC1 [Example 367] | 6.00 to 7.00
COC(=O)COc1cccnc1N1CCN(C(=O)c2ccc(C[C@@H]3CC[C@H]([C@H](O)c4ccccc4)N3)cc2)CC1 [Example 368] | 7.00 to 8.00
O=C(c1ccc(C[C@@H]2CC[C@H]([C@H](O)c3ccccc3)N2)cc1)N1CCN(c2ncccc2-c2ccc(F)cc2)CC1 [Example 369] | 7.00 to 8.00
O=C(c1ccc(C[C@@H]2CC[C@H]([C@H](O)c3ccccc3)N2)cc1)N1CCN(c2ncccn2)CC1 [Example 370] | 6.00 to 7.00
O=C(c1ccc(C[C@@H]2CC[C@H]([C@H](O)c3ccccc3)N2)cc1)N1CCN(c2nccnc2Cl)CC1 [Example 371] | 6.00 to 7.00
Cc1cc(C)nc(N2CCN(C(=O)c3ccc(C[C@@H]4CC[C@H]([C@H](O)c5ccccc5)N4)cc3)CC2)n1 [Example 372] | 6.00 to 7.00
O=C(c1ccc(C[C@@H]2CC[C@H]([C@H](O)c3ccccc3)N2)cc1)N1CCN(c2nccc3ccccc23)CC1 [Example 373] | 7.00 to 8.00
O=C(c1ccc(C[C@@H]2CC[C@H]([C@H](O)c3ccccc3)N2)cc1)N1CCN(c2cc3ccccc3cn2)CC1 [Example 374] | 6.00 to 7.00
O=C(c1ccc(C[C@@H]2CC[C@H]([C@H](O)c3ccccc3)N2)cc1)N1CCN(c2ncc3ccccc3n2)CC1 [Example 375] | 6.00 to 7.00
O=C(c1ccc(C[C@@H]2CC[C@H]([C@H](O)c3ccccc3)N2)cc1)N1CCN(c2nccc(-c3ccccc3)n2)CC1 [Example 376] | 7.00 to 8.00
O=C(c1ccc(C[C@@H]2CC[C@H]([C@H](O)c3cccnc3)N2)cc1)N1CCN(c2nccc(-c3ccccc3)n2)CC1 [Example 377] | 7.00 to 8.00

SMILES | pEC50
O=C(c1ccc(C[C@@H]2CC[C@H]([C@H](O)c3ccccc3)N2)cc1)N1CCN(c2nccs2)CC1 [Example 378] | 7.00 to 8.00
O=C(c1ccc(C[C@@H]2CC[C@H]([C@H](O)c3cccnc3)N2)cc1)N1CCN(c2nccs2)CC1 [Example 379] | 6.00 to 7.00
Cc1nonc1N1CCN(C(=O)c2ccc(C[C@@H]3CC[C@H]([C@H](O)c4ccccc4)N3)cc2)CC1 [Example 380] | 7.00 to 8.00
COC(=O)c1csc(N2CCN(C(=O)c3ccc(C[C@@H]4CC[C@H]([C@H](O)c5ccccc5)N4)cc3)CC2)n1 [Example 381] | 6.00 to 7.00
O=C(O)c1csc(N2CCN(C(=O)c3ccc(C[C@@H]4CC[C@H]([C@H](O)c5ccccc5)N4)cc3)CC2)n1 [Example 382] | 5.52 to 6.00
O=C(c1ccc(C[C@@H]2CC[C@H]([C@H](O)c3ccccc3)N2)cc1)N1CCN(c2noc3ccccc23)CC1 [Example 385] | 7.00 to 8.00
O=C(c1ccc(C[C@@H]2CC[C@H]([C@H](O)c3ccccc3)N2)cc1)N1CCN(c2nsc3ccccc23)CC1 [Example 386] | 7.00 to 8.00
O=C(c1ccc(C[C@@H]2CC[C@H]([C@H](O)c3ccccc3)N2)cc1)N1CCN(c2ccc[nH]c2=O)CC1 [Example 387] | 7.00 to 8.00
NC(=O)CN1CCN(C(=O)c2ccc(C[C@@H]3CC[C@H]([C@H](O)c4ccccc4)N3)cc2)CC1 [Example 388] | 6.00 to 7.00
CN(C)C(=O)CN1CCN(C(=O)c2ccc(C[C@@H]3CC[C@H]([C@H](O)c4ccccc4)N3)cc2)CC1 [Example 389] | 6.00 to 7.00
O=C(O)CN1CCN(C(=O)c2ccc(C[C@@H]3CC[C@H]([C@H](O)c4ccccc4)N3)cc2)CC1 [Example 390] | 6.00 to 7.00
O=C(O)[C@@H]1CCCN1C(=O)CN1CCN(C(=O)c2ccc(C[C@@H]3CC[C@H]([C@H](O)c4ccccc4)N3)cc2)CC1 [Example 391] | 6.00 to 7.00
O=C(c1ccc(C[C@@H]2CC[C@H]([C@H](O)c3ccccc3)N2)cc1)N1CCN(Cc2ncco2)CC1 [Example 392] | 7.00 to 8.00
O=C(c1ccc(C[C@@H]2CC[C@H]([C@H](O)c3ccccc3)N2)cc1)N1CCN(Cc2ccon2)CC1 [Example 393] | 7.00 to 8.00
O=C(c1ccc(C[C@@H]2CC[C@H]([C@H](O)c3ccccc3)N2)cc1)N1CCN(Cc2nccs2)CC1 [Example 394] | 7.00 to 8.00
O=C(c1ccc(C[C@@H]2CC[C@H]([C@H](O)c3ccccc3)N2)cc1)N1CCN(Cc2ccn[nH]2)CC1 [Example 395] | 7.00 to 8.00
Cn1ccnc1CN1CCN(C(=O)c2ccc(C[C@@H]3CC[C@H]([C@H](O)c4ccccc4)N3)cc2)CC1 [Example 396] | 6.00 to 7.00
Cn1ncnc1CN1CCN(C(=O)c2ccc(C[C@@H]3CC[C@H]([C@H](O)c4ccccc4)N3)cc2)CC1 [Example 397] | 7.00 to 8.00
O=C(c1ccc(C[C@@H]2CC[C@H]([C@H](O)c3ccccc3)N2)cc1)N1CCN(Cc2nnn[nH]2)CC1 [Example 398] | 7.00 to 8.00
Cn1nnnc1CN1CCN(C(=O)c2ccc(C[C@@H]3CC[C@H]([C@H](O)c4ccccc4)N3)cc2)CC1 [Example 399] | 7.00 to 8.00
CC(C)n1nnnc1CN1CCN(C(=O)c2ccc(C[C@@H]3CC[C@H]([C@H](O)c4ccccc4)N3)cc2)CC1 [Example 400] | 7.00 to 8.00
Cn1nnc(CN2CCN(C(=O)c3ccc(C[C@@H]4CC[C@H]([C@H](O)c5ccccc5)N4)cc3)CC2)n1 [Example 401] | 7.00 to 8.00

SMILES | pEC50
CC(C)n1nnc(CN2CCN(C(=O)c3ccc(C[C@@H]4CC[C@H]([C@H](O)c5ccccc5)N4)cc3)CC2)n1 [Example 402] | 7.00 to 8.00
O=C(c1ccc(C[C@@H]2CC[C@H]([C@H](O)c3ccccc3)N2)cc1)N1CCN(Cc2nc3ccccc3o2)CC1 [Example 403] | 8.00 to 9.00
O=C(c1ccc(C[C@@H]2CC[C@H]([C@H](O)c3ccccc3)N2)cc1)N1CCN(Cc2nc3ccccc3s2)CC1 [Example 404] | 7.00 to 8.00
O=C(c1ccc(C[C@@H]2CC[C@H]([C@H](O)c3ccccc3)N2)cc1)N1CCN(Cc2n[nH]c3ccccc23)CC1 [Example 405] | 8.00 to 9.00
O=C(c1ccc(C[C@@H]2CC[C@H]([C@H](O)c3ccccc3)N2)cc1)N1CCN(Cc2n[nH]c3ncccc23)CC1 [Example 406] | 7.00 to 8.00
O=C(c1ccc(C[C@@H]2CC[C@H]([C@H](O)c3ccccc3)N2)cc1)N1CCN(Cc2noc3ccccc23)CC1 [Example 407] | 8.00 to 9.00
O=C(c1ccc(C[C@@H]2CC[C@H]([C@H](O)c3ccccc3)N2)cc1)N1CCN(Cc2cnn(-c3ccccc3)n2)CC1 [Example 408] | 8.00 to 9.00
COc1ccccc1CN1CCN(C(=O)c2ccc(C[C@@H]3CC[C@H]([C@H](O)c4ccccc4)N3)cc2)CC1 [Example 409] | 7.00 to 8.00
O=C(c1ccc(C[C@@H]2CC[C@H]([C@H](O)c3ccccc3)N2)cc1)N1CCN(Cc2ccccc2F)CC1 [Example 410] | 7.00 to 8.00
O=C(c1ccc(C[C@@H]2CC[C@H]([C@H](O)c3ccccc3)N2)cc1)N1CCN(Cc2c(F)cccc2F)CC1 [Example 411] | 8.00 to 9.00
CC(C)(c1ccccc1F)N1CCN(C(=O)c2ccc(C[C@@H]3CC[C@H]([C@H](O)c4ccccc4)N3)cc2)CC1 [Example 412] | 8.00 to 9.00
O=C(c1ccc(C[C@@H]2CC[C@H]([C@H](O)c3ccccc3)N2)cc1)N1CCN(Cc2ncccc2O)CC1 [Example 413] | 7.00 to 8.00
COc1cccnc1CN1CCN(C(=O)c2ccc(C[C@@H]3CC[C@H]([C@H](O)c4ccccc4)N3)cc2)CC1 [Example 414] | 7.00 to 8.00
CC(C)Oc1cccnc1CN1CCN(C(=O)c2ccc(C[C@@H]3CC[C@H]([C@H](O)c4ccccc4)N3)cc2)CC1 [Example 415] | 7.00 to 8.00
O=C(c1ccc(C[C@@H]2CC[C@H]([C@H](O)c3ccccc3)N2)cc1)N1CCN(Cc2ncccc2Br)CC1 [Example 416] | 7.00 to 8.00
O=C(c1ccc(C[C@@H]2CC[C@H]([C@H](O)c3ccccc3)N2)cc1)N1CCN(Cc2ncccc2C(F)(F)F)CC1 [Example 417] | 7.00 to 8.00
O=C(c1ccc(C[C@@H]2CC[C@H]([C@H](O)c3ccccc3)N2)cc1)N1CCN(Cc2ncccc2F)CC1 [Example 418] | 7.00 to 8.00
CC(C)C(c1ccccn1)N1CCN(C(=O)c2ccc(C[C@@H]3CC[C@H]([C@H](O)c4ccccc4)N3)cc2)CC1 (stereo partly shown) [Example 419] | 7.00 to 8.00
O=C(c1ccc(C[C@@H]2CC[C@H]([C@H](O)c3ccccc3)N2)cc1)N1CCN(C2(c3ccccn3)CC2)CC1 [Example 420] | 6.00 to 7.00
CC(c1nnco1)N1CCN(C(=O)c2ccc(C[C@@H]3CC[C@H]([C@H](O)c4ccccc4)N3)cc2)CC1 (stereo partly shown) [Example 421] | 7.00 to 8.00

From patent US8354403B2, “Pyrrolidine derived beta 3 adrenergic receptor agonists” (Merck Sharp & Dohme Corp., priority 2009, dated 2013)
